Results: patent US20020165216A1, “Cobalt-porphyrin complexes and use thereof as an anti-obesity agent” (MitoKor, priority 2000, published 2002)
Where two headings read alike, the source gives them in different places.

Legend:
[1] = Oxygen consumption catalyzed by Co-P in the presence of ascorbate/TMPD (Clark oxygen electrode); conditions: 2 mM ascorbate, 40 μM TMPD; for Relative Rate (oxygen consumption), effect of ligand, R5, A and n moiety: Table 4; for Relative Rate (oxygen consumption), effect of ligand, R5 and A moiety: Table 3; for O2 consumption / redox cycling (in words): cell free ascorbate/TMPD system
Protocol: (Co-MP). Such activity can be readily determined by, for example, the assay disclosed in Example 16. In that assay, redox activity is measured by oxygen consumption catalyzed by a Co-P test compound in the presence of ascorbate and TMPD.
Ten mM stock solutions of a Co-P of this invention (i.e., test compound) were prepared using ethanol as solvent. KCl media consists of 125 mM KCl, 2 mM K2HPO4, 20 mM HEPES, pH 7.0. Oxygen consumption measurements were carried out using a Clark type oxygen electrode (Rank Brothers Ltd., Cambridge, UK) and assay solutions were magnetically stirred during the course of the experiments. To 500 μl of assay solution (KCl media supplemented with 2 mM sodium ascorbate and 40 μM […] (TMPD)) is added 2 μl of a stock solution of test compound (40 μM final concentration) and the oxygen consumption rate is followed for 2-4 min. Subsequently, a 5 μl aliquot of a freshly made catalase solution (100 mg/ml solution in KCl media) is added to determine if H2O2 is generated via redox cycling of the test compound.
Initial rates are calculated from oxygen consumption slopes and rate of a solvent control is subtracted. […] An aliquot of a 10 mM stock solution of Co-MP (final concentration of 40 μM) was added to assay buffer containing 2 mM of ascorbate and 40 μM of TMPD. […] Addition of catalase results in conversion of H2O2 present in the assay solution to O2 and H2O.
Stock solutions of the test compound were at 10 mM. Aliquots of the stock solutions were added to 500 μl of assay buffer containing 2 mM of ascorbate and 40 μM of TMPD.
Representative Co-P compounds of this invention were prepared by the procedures disclosed above, and assayed by the procedure of Example 16 to measure oxygen consumption catalyzed by the test compound in the presence of ascorbate/TMPD. […] The above procedure was then repeated for other representative Co-P compounds of this invention, but utilizing different ligands and/or R groups.

Weight loss assay = format: in vivo, Male Sprague Dawley rats; conditions: 12 mM in vehicle, 400 μl per 100 grams body weight, subcutaneous, nuchal area, 8 days
Protocol: Male Sprague Dawley rats (approximately 200 g) were purchased from Charles River Canada, Inc. and were shipped to the Animal Care Facility at the University of Vermont. Upon arrival they were housed in separate cages with corncob bedding and ad lib access to tap water and purina rat chow. The animal facility is maintained at a temperature of 71° F. +/− 1° F. with a 12-hour light/dark cycle, lights on at 6:00 am and off at 6:00 pm. Two days later (Day-3) all rats were shaved in the nuchal area and baseline color photographs of the nuchal area were taken (light halothane anesthesia was utilized to facilitate the shaving). Three days later (Day 0) experimental compounds were made up at 12 mM concentrations in vehicle (i.e., saline:PEG400:EtOH (5:4:1), pH 7.4). Animals were injected subcutaneously in the nuchal area with the various stock solutions at a dose of 400 μl per 100 grams body weight. Typical injection volumes, therefore, range from 1 to 1.5 ml per animal. Animals were injected using a modified Z-track technique to try and minimize outflow of injected compounds due to the high volume utilized. Each animal was weighed prior to injection and all injections were accomplished in an approximately two-hour period. No anesthesia was utilized for injections.
Animals subsequently underwent daily weighing with a Mettler 6 second integrating balance and had ad lib access to tap water and purina rat chow. At various intervals after injections, the nuchal area of rats was again photographed. […] The scale used was 0 for no lesions, 5 for the worst lesions with breakdown of the skin and open flow of exudates. Grades in-between were estimated by the operator based on the size and severity of the lesion. […] After 8 days, final photographs were taken and all animals were euthanized, marking the end of the experiment.
Means of body weights for each group were calculated and plotted over time (FIG. 9A), as were numerical means of the lesion severity index (FIG. 9B). In FIGS. 9A and 9B, C=noninjected control, V=vehicle injected control, A=Co-MP, E=Cpd. No. (1-6) and F=Cpd. No. (4-4). […] Cpd.

reduced cytochrome c = reduced cytochrome c (Homo sapiens, UniProt P99999); assay: Oxidation of reduced cytochrome c by Co-PP; format: biochemical; conditions: reduced cytochrome c 5.3, 10.5, 26 μM; 0-100 μM CoPP; absorbance at 550 nm
Protocol: Reduced cytochrome c was prepared by the addition of an excess of ascorbic acid to a solution of cytochrome c and allowing the solution to stand for 5 to 10 minutes. The reduced protein was purified over a Sephadex G50 column and checked spectrophotometrically by measuring absorbance at 550 nm, followed by the addition of a few grains of dithionite and measuring absorbance again at 550 nm. […] Initial rates of oxidation of reduced cytochrome c at three concentrations (5.3 μM, 10.5 μM and 26 μM) were followed in the presence of 0, 5,10, 20 and 100 μM CoPP. Assays were conducted in 1 ml of assay buffer (20 mM potassium phosphate, pH 7.0, 0.2 mg/ml dodecyl-β-maltoside) and initiated by the addition of desired concentration of reduced cytochrome c and monitoring the change in absorbance at 550 nm for 90 seconds. The fully oxidized absorbance value was determined by the addition of a few grains of ferricyanide to the cuvette. […] In a biological system, Co-PP can transfer electrons from an electron rich donor/reductant to molecular oxygen, O2, to generate reactive oxygen species, the production of which can be toxic to cells and give rise to undesirable side effects (e.g. oxidative stress).

[2] = high doses; cited from earlier work
[3] = cited from earlier work
[4] = subcutaneous administration, Zucker rats fa/fa; cited from earlier work
[5] = system: SH-SY5Y neuroblastoma cells; assay: Cellular assay for generation of reactive oxygen species (ROS); format: cell-based; conditions: for generation of reactive oxygen species (DCFC-DA fluorescence): 30 minutes with test compound
Protocol: All cell culture reagents were incubated in a water bath at 37° C. for approximately 30 minutes. Existing media from a near confluent tissue culture flask containing SH-SY5Y neuroblastoma cells was aspirated using a flame sterilized glass transfer pipette attached to a trapped vacuum apparatus. Calcium free PBS buffer was pipetted into the tissue culture flask (2 ml for a 75 cm2 flask, 3 ml for a 175 cm^2 flask). The flask was tipped slightly to ensure that the buffer covers the cell culture and then the buffer was removed by aspiration. Trypsin media was pipetted into the tissue culture flask (2 ml for a 75 cm^2 flask, 3 ml for a 175 cm^2 flask) and evenly spread to ensure that the trypsin covered the cell culture. The cell culture was incubated with trypsin media for 4-6 minutes at room temperature. After cells were released from the flask, the flask was tilted to one corner. Using the existing media within the flask, the aggregated cells were collected towards one corner and repeatedly pipetted to obtain a single cell suspension. The cell suspension was transferred with a pipette into a 15 ml conical shaped centrifuge tube then cell culture media was added to the suspension up to a total volume of 14 ml. Ten μl aliquots were withdrawn and the cells were counted using a hemocytometer. The suspension was centrifuged at 200×g for 10 minutes, the supernatant was aspirated off, and the cell pellet was resuspended at 3.75×10^5 cells/ml in cell culture medium. Two hundred μl of cell suspension were aliquoted per well in the 96 well dish to obtain a final cell number of 75,000 cells per well. The plates were incubated overnight at 37° C. and 5% CO2 in a humidified cell incubator.
The medium was carefully removed from the wells by aspiration with an 18 g needle. The wells were gently rinsed once with 200 μl of warm Hanks balanced saline solution (HBSS, Gibco-BRL). […]
Stock solutions of test compound, such as Co-PP, Co-MP, or a Co-P of this invention, and of an H2O2 scavenger such as ebselen, were typically prepared in dimethylformamide or dimethylsulfoxide and diluted further into working concentrations using HBSS. […] The plate was read immediately in Cytofluor model 2350 system (Millipore; excitation wavelength: 485 nm; emission wavelength: 530 nm) for a 0 min timepoint reading. The cells were incubated for 30 minutes at room temperature with test compound following which a 30 min reading was taken. The change in RMF over the 30 minutes period was calculated for each well. […] The plate was then read in the Cytofluor (excitation wavelength: 360 nm; emission wavelength: 460 nm) and the Hoechst fluorescence values were used to normalize the DCFC-DA RMF data.

[6] = 40 μM test compound, normalized to chloride salt of Co-MP = 1

Chain of reduced cytochrome c (P99999 whole entry): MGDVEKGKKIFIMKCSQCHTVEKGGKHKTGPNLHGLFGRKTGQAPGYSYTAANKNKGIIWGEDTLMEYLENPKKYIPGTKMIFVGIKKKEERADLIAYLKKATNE

In the case of “Cobalt (III) Mesoporphyrin IX Dithiobenzyl Ether [(10-1)]”, the “Relative Rate (oxygen consumption), effect of ligand, R5, A and n moiety” value (shortened to “Relative Rate … A and n moiety”) [1, 6] is reported as 0.021.

In the case of “Cobalt (III) Mesoporphyrin IX bisglycinate monosodium salt diisopropyl ester [(1-6)]”, the “Relative Rate (oxygen consumption), effect of ligand, R5 and A moiety” value (from here on “Relative Rate … R5 and A moiety”) [1, 6] is reported as “(not detected)” and the body weight response (Weight loss assay) is reported as “favorable body weight responses”.

For “Cobalt (III) Mesoporphyrin IX Dimethyl Ester [(5-1)]”, the “Relative Rate (oxygen consumption), effect of ligand and R5 moiety” value ([1]; Table 2, 40 μM test compound, normalized to chloride salt of Co-MP = 1) was 0.05-0.07.

For “Cobalt (III) Mesoporphyrin IX Dibenzyl Ester [(8-1)]”, the “Relative Rate … A and n moiety” value [1, 6] was 0.045.

With “Cobalt (III) Mesoporphyrin IX bisglycinate monosodium salt dibutyl ester [(1-2)]” the “Relative Rate … R5 and A moiety” value [1, 6] was “(not detected)”.

For “Cobalt (III) Mesoporphyrin IX bisglycinate monosodium salt, diisobutyl ester [(1-3)]”, the “Relative Rate … R5 and A moiety” value [1, 6] was “(not detected)”.

For “Cobalt (III) Mesoporphyrin IX bisglycinate monosodium salt, diisoamyl ester [(1-4)]”, the “Relative Rate … R5 and A moiety” value [1, 6] was “(not detected)”.

In the case of “Cobalt (III) Mesoporphyrin IX Diacetate [(7-1)]”, the “Relative Rate … A and n moiety” value [1, 6] is reported as 0.07.

In the case of `C=CC1=C(C)c2cc3[n-]c(cc4nc(cc5[n-]c(cc1n2)c(C)c5CCC(=O)[O-])C(CCC(=O)[O-])=C4C)c(C)c3C=C.[Co+2].[H+].[H+]` [Co-PP, Cobalt protoporphyrin], the “oxidation of reduced cytochrome c” value (reduced cytochrome c) is given as “serves as an electron acceptor from reduced cytochrome c”, the heme oxygenase induction [2] is given as “induction of heme oxygenase” and the oxidative stress [2] is given as “oxidative stress has been associated with administration of high doses”. For the same compound, the body weight ([3]; single subcutaneous injection) was “sustained decrease in body weight”, the carcass composition ([3]; single subcutaneous injection) was “decreases in carcass fat content without changes in protein content” and the food intake ([3]; single subcutaneous injection) was “prompt dose-dependent decrease in food intake”. For the same compound, the “food intake and body weight effect” value ([3]; smaller doses, intracerebroventricular administration) was “elicit the same effect”, the body weight [4] was “long-sustained reduction in body weight” and the “Relative Rate … R5 and A moiety” value [1, 6] was 2.2. For the same compound, the “generation of reactive oxygen species (DCFC-DA fluorescence)” value [5] was “reactive oxygen species were induced”.

For `O=c1c2ccccc2[se]n1-c1ccccc1` [ebelsen, ebselen], the “scavenging of reactive oxygen species induced by Co-PP and Co-MP” value [5] was “scavanges the reactive oxygen species”.

In the case of `c1c[nH]cn1` [imidazole], the “O2 consumption / redox cycling (in words)” value [1] is reported as “blocks generation of reactive oxygen species”.

For Cobalt (III) Mesioirogyrin IX [(11-1)], the “Relative Rate … A and n moiety” value [1, 6] was 0.0005.

With “Cobalt (III) Mesoporphyrin IX Diol [(6-1)]” the “Relative Rate … A and n moiety” value [1, 6] was 0.56.

In the case of “Cobalt (III) Mesoporphyrin IX bisglycinate monosodium salt, dimethyl ester [(1-1)]”, the “Relative Rate … R5 and A moiety” value [1, 6] is reported as 0.21 ± 0.04.

In the case of “Cobalt (III) mesoporphyrin IX bisimidazole, di(4-methoxybenzyl) amide [(4-2)]”, the “Relative Rate … R5 and A moiety” value [1, 6] is reported as “(not detected)”, the “O2 consumption / redox cycling (in words)” value [1] is reported as “does not result in any O2 consumption” and the “generation of reactive oxygen species (DCFC-DA fluorescence)” value [5] is reported as “does not trigger generation of reactive oxygen species”.

In the case of “Cobalt (III) Mesoporphyrin IX bisglycinate monosodium salt, diethyl ester [(1-5)]”, the “Relative Rate … R5 and A moiety” value [1, 6] is reported as 0.08 ± 0.01.

In the case of `CCC1=C(C)c2cc3[n-]c(cc4nc(cc5[n-]c(cc1n2)c(C)c5CCC(=O)NC(C)C)C(CCC(=O)NC(C)C)=C4C)c(C)c3CC.NCC(=O)O.NCC(=O)[O-].[Co+3]` [(4-4), Cobalt (III) mesoporphvrin IX bisglycinate, di—(N-isopropyl)amide], the body weight response (Weight loss assay) is reported as “favorable body weight responses”.
